Results from US20230183243A1, “HETEROARYL DERIVATIVES AND PHARMACEUTICAL COMPOSITION COMPRISING SAME AS ACTIVE INGREDIENT” (VORONOI INC., priority 2019, published 2023).
Counter-ions that a name gives are not always drawn.

What was measured:
[1] = system: SHP-77; assay: Inhibition of proliferation of small cell lung cancer cells, CellTiter-Glo; assay type: cell-based; settings: Homo sapiens, SHP77, 120 h; SHP-77, cultured for 5 days
Method in brief: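 SHP-77 cells at 2,000–3,000 cells/well, cultured 24 h at 37° C, 5% CO2, then given 12 threefold compound dilutions, final 10 μM to 0.05 nM, for 5 days. Viability by CellTiter-Glo luminescence relative to solvent control. GI50 from concentration–response.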

[2] = system: MDA-MB-231 cells; assay: Inhibition of proliferation of triple-negative breast cancer cells, CellTiter-Glo; assay type: cell-based; settings: Homo sapiens, 120 h; MDA-MB-231, cultured for 5 days
Method in brief: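 MDA-MB-231 cells pre-cultured 24 h (5% CO2, 37 °C), then exposed to compound for 5 days at 12 three-fold dilutions, final 10 μM to 0.05 nM. Viability read by CellTiter-Glo luminescence after 10 min at 37 °C; growth inhibition calculated relative to untreated solvent-control cells.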

[3] = biological target: T1, TTK (Homo sapiens, UniProt P33981); assay: TTK enzyme activity, ADP-Glo kinase assay; assay type: biochemical; parameters: purchased SignalChem T20-10G; settings: purified human TTK, ATP 10 μM, 25° C., 2 hours
T1 sequence (P33981 1-857): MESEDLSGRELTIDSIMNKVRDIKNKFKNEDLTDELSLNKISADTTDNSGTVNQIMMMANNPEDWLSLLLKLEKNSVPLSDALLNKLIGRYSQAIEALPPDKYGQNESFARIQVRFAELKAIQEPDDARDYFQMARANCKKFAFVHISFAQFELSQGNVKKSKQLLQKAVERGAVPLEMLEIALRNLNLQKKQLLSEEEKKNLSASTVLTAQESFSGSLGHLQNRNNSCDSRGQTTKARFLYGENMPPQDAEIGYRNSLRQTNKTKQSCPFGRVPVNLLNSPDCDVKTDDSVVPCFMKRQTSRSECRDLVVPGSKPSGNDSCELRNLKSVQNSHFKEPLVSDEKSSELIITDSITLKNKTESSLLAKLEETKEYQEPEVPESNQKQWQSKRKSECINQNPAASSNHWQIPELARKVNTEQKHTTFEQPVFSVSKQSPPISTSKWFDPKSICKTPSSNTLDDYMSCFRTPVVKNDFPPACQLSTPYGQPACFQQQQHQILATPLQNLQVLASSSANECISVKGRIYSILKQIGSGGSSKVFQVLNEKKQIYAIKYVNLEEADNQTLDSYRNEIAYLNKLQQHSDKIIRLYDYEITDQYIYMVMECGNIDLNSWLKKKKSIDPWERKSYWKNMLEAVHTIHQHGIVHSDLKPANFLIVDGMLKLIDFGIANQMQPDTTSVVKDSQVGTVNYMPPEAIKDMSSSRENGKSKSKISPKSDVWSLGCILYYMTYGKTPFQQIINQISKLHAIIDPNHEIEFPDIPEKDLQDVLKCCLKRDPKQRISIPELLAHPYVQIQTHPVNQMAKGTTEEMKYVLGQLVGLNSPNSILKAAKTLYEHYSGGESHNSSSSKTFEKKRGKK
Method in brief: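 Purified human TTK (25 ng) incubated with 10 μM ATP and substrate (0.2 μg) for 2 h at 25 °C in Tris-HCl pH 7.4, MgCl2, BSA, DTT buffer. ADP formation read by ADP-Glo; inhibition calculated against untreated solvent control.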

Row | Compound | GI50 [1] | GI50 [2] | IC50 [3]
1 | CN(C)S(=O)(=O)CCNc1nc(Nc2ccc(-c3ccnn3C)c3c2OCCO3)nc2[nH]cc(C#N)c12 [Example 85, 2-((5-cyano-2-((8-(1-methyl-1H-pyrazol-5-yl)-2,3-dihydrobenzo[b][1,4]dioxin-5-yl)amino)-7H-pyrrolo[2,3-d]pyrimidin-4-yl)amino)-N,N-dimethylethane-1-sulfonamide] | < 100 nM | 100 to 1000 nM | < 50 nM
2 | Cn1nccc1-c1ccc(Nc2nc(NCC3CCCC3)c3c(C#N)c[nH]c3n2)c2c1OCCO2 [Example 50, 4-((cyclopentylmethyl)amino)-2-((8-(1-methyl-1H-pyrazol-5-yl)-2,3-dihydrobenzo[b][1,4]dioxin-5-yl)amino)-7H-pyrrolo[2,3-d] pyrimidine-5-carbonitrile hydrochloride] | < 100 nM | < 100 nM | 50 to 200 nM
3 | Cn1nccc1-c1ccc(Nc2nc(NC3CCC(F)(F)C3)c3c(C#N)c[nH]c3n2)c2c1OCCO2 (stereo not drawn) [Example 116, 4-((3,3-difluorocyclopentyl)amino)-2-((8-(1-methyl-1H-pyrazol-5-yl)-2,3-dihydrobenzo[b][1,4]dioxin-5-yl)amino)-7H-pyrrolo[2,3-d] pyrimidine-5-carbonitrile] | < 100 nM | < 100 nM | < 50 nM

Second part, the compound after the results:

Row | GI50 [1] | GI50 [2] | IC50 [3] | Compound
4 | < 100 nM | < 100 nM | < 50 nM | COc1cc(-c2ccnn2C)ccc1Nc1nc(NC2CCOC(C)(C)C2)c2c(C#N)c[nH]c2n1 (stereo not drawn) [Example 115, 4-((2,2-dimethyltetrahydro-2H-pyran-4-yl)amino)-2-((2-methoxy-4-(1-methyl-1H-pyrazol-5-yl)phenyl)amino)-7H-pyrrolo[2,3-d] pyrimidine-5-carbonitrile]
5 | < 100 nM | < 100 nM | < 50 nM | COC[C@@H](C)Nc1nc(Nc2ccc(-c3ccnn3C)c3c2OCCO3)nc2[nH]cc(C#N)c12 [Example 101]
6 | < 100 nM | < 100 nM | < 50 nM | COc1cc(Nc2nc(NC3CCCCC3)c3c(C#N)c[nH]c3n2)ccc1-c1ccnn1C [Example 121, 4-(cyclohexylamino)-2-((3-methoxy-4-(1-methyl-1H-pyrazol-5-yl)phenyl)amino)-7H-pyrrolo[2,3-d] pyrimidine-5-carbonitrile]
7 | < 100 nM | < 100 nM | < 50 nM | COc1cc(N2CCCCS2(=O)=O)ccc1Nc1nc(NC2CCOCC2)c2c(C#N)c[nH]c2n1 [Example 163, 2-((4-(1,1-dioxido-1,2-thiazinan-2-yl)-2-methoxyphenyl)amino)-4-((tetrahydro-2H-pyran-4-yl)amino)-7H-pyrrolo[2,3-d] pyrimidine-5-carbonitrile]
